In PubChem BioAssay AID179 (DTP/NCI, 2004) one finds EC50, IC50 and outcome data, which are given here for 73 molecules.

Molecules are shown by their SMILES. Activity calls are given as the source filed them.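 How the source made its calls: active means compounds giving half or more protection of infected cells from virus-caused growth loss, again on retest; inactive means the rest.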 Bounds are passed on as bounds.

In this experiment the test system is CEM cells HIV-1 protection, formazan growth assay. The experiment in a line: NCI AIDS Antiviral Assay. To be noted: for IC50: measured here: growth of uninfected CEM cells. Here is the method:
The ability of compounds to protect human CEM cells from HIV-1 infection is measured as a screen for new compounds capable of inhibiting the HIV virus. Five concentrations of drug were tested on uninfected and infected cells and cell growth was measured using a soluble formazan assay. […] Compounds that provided at least 50% protection were retested. Compounds that provided at least 50% protection on retest were listed as moderately active. Compounds that reproducibly provided 100% protection were listed as confirmed active. […] Note that the inability to provide protection could be due to toxicity.

For the molecule `COc1ccc2[nH]cc(C(=O)C(=O)NC34CC5CC(CC(C5)C3)C4)c2c1`, the EC50 (in general, the concentration that produces a half-maximal response) is more than 200 µM and the half-inhibitory concentration (IC50) (usually the midpoint of a concentration-inhibition curve) was 6.03 µM.

On to `COC(=O)[C@]1(NC(=O)c2ccccc2)C[C@H]1C=O`, for which the EC50 was more than 200 µM and the half-maximal inhibitory concentration (IC50) turned out to be 170 µM. Regarding `C=CC1CC[N-]CC1.[Cl][Cu][Cl]`, the outcome was inactive. Still for that read-out and setting: the result for `COC(=N)/C(C#N)=N/C1OCC(O)C(O)C1O` (stereo not drawn) reads “inactive”.

Turning to `C/C(=C\C(=O)O)C(=O)N(C)c1ccccc1I`, the EC50 is more than 200 µM and the IC50 was more than 200 µM.

As to `COC(=O)CP(=O)(OC)OCC(F)(F)F` (stereo not drawn), the EC50 is more than 1000 µM and the IC50 was 832 µM. For `CC1(C)C2CCC1(C)C(NC(=O)CCN1CCOCC1)C2` (stereo not drawn), in that order: more than 851 µM and 537 µM.

Consider `Cc1ccc(C(=O)/C=C/c2ccc3c(c2)OCO3)cc1`, for which the EC50 was more than 19.5 µM and the 50% inhibitory concentration (IC50) was more than 19.5 µM. Turning to `Cc1ccc(C2(c3ccc(F)cc3)OC(=O)c3ccccc32)c(O)c1` (stereo not drawn), the outcome was inactive. As for `CCOC(=O)C1(Cc2ccc3c(c2)CCC3)Cc2cc3c(cc2C1)CCC3`, the EC50 was more than 200 µM and the IC50 is 15.5 µM. The like results for `O=c1c(O)c(-c2cc(O)c(O)c(O)c2)oc2cc(O)ccc12` were, in that order, more than 832 µM and 11.7 µM. The like results for `NNC(=O)C1C2c3ccccc3C(c3ccccc32)C1C(=O)O` (stereo not drawn) were, in that order, more than 200 µM and more than 200 µM.

As for `Cc1cn(C2OCC(CO)C2N=[N+]=[N-])c(=O)[nH]c1=O` (stereo not drawn), the EC50 is more than 200 µM and the IC50 is more than 200 µM. Take `COC(CC[P+](c1ccccc1)(c1ccccc1)c1ccccc1)(C(=O)c1ccccc1)c1ccccc1` (stereo not drawn): the EC50 is more than 20 µM and the half-maximal inhibitory concentration (IC50) is 0.447 µM. The like results for `COc1ccc(/C=C2\CCC(C)C3=C2NC(=S)NC3c2ccc(OC)c(OC)c2)cc1OC` (stereo not drawn) were, in that order, more than 200 µM and 11.2 µM. For `COc1cc(C2c3cc4c(cc3CCN2C(=O)c2ccccc2)OCO4)cc(OC)c1OC` (stereo not drawn), in that order: more than 200 µM and 13.5 µM. The like results for `CC1(C)O[C@@H](CCl)C[C@H](C#N)O1` were, in that order, more than 200 µM and more than 200 µM. Turning to `COc1ccc(-c2cc(=O)c3c(O)c(O)c(OC)cc3o2)cc1O`, the EC50 was more than 550 µM and the IC50 came to 240 µM. For `O=C(NCCc1c(-c2ccccc2)[nH]c2ccccc12)C1CCCCC1`, in that order: more than 200 µM and 15.8 µM. The like results for `O=S(=O)(O)C(I)S(=O)(=O)O` were, in that order, more than 200 µM and more than 200 µM.

On to `C(=C\c1c2oc(-c3ccccc3)cc(-c3ccccc3)c-2c2ccccc12)/C=C1\c2ccccc2-c2c(-c3ccccc3)cc(-c3ccccc3)[o+]c21`, for which the EC50 is more than 6.76 µM and the 50% inhibitory concentration (IC50) was more than 6.76 µM.

For `Cc1cc2c(cc1C)NS(=O)(=O)N2`, the EC50 is more than 447 µM and the half-inhibitory concentration (IC50) was 9.77 µM. For `CCOC1N(C2C=CC(CO)O2)C(=O)NC(=O)C1(C)Br` (stereo not drawn), in that order: more than 13.5 µM and more than 13.5 µM. For `COc1ccc(/C(C#N)=C\c2ccc(N(C)C)cc2)cc1`, the EC50 is more than 100 µM and the 50% inhibitory concentration (IC50) was determined as 1.23 µM.

As for `CC1CC2C(=O)N(c3ccccc3)C(=O)C2c2c1c1ccccc1n2Cc1ccccc1` (stereo not drawn), the result was inactive. With `C1CCC(N2CSCSC2)CC1`, the EC50 is more than 200 µM and the concentration for half-maximal inhibition (IC50) was 107 µM. The like results for `CC(=O)Oc1c2c(c(O)c3ccccc13)C(n1cnc3c(ncn3C3OC(CO)C4OC(C)(C)OC43)c1=N)CCC2` (stereo not drawn) were, in that order, more than 45.7 µM and 12.9 µM. The like results for `CCN(CC)c1c(C(=O)/C=C/c2ccc(F)cc2)c(-c2ccccc2)nn(C)c1=O` were, in that order, more than 33.9 µM and 7.24 µM. The like results for `CC(C)/C(Cl)=N\OC(NC(=O)P(=O)(c1ccccc1)c1ccccc1)(C(F)(F)F)C(F)(F)F` were, in that order, more than 200 µM and 10.5 µM. Take `CCSCCCN(CCCSCC)CCCSCC`: the EC50 was more than 155 µM and the IC50 was more than 155 µM.

Turning to `Cc1ccc(OC(=O)N2C/C(=C\c3ccccc3)C(=O)/C(=C/c3ccccc3)C2)cc1`, the outcome was inactive. With `CCOC(=O)/C(=C/c1ccccc1)C(=O)c1ccccc1`, the EC50 was more than 25.7 µM and the IC50 came out at 20 µM. For `C[P@](=O)(CCSc1ccccc1)c1ccccc1`, in that order: more than 468 µM and more than 468 µM. On to `O=S(=O)(c1ccccc1)C1CN(Cc2ccccc2)CCN(Cc2ccccc2)C1`, for which the result was inactive. As for `CS(=O)(=O)OCCN1CCN(C(=O)c2ccc(Cl)c3c(Nc4ccc(S(=O)(=O)N=C(N)N)cc4)c4ccccc4nc23)CC1`, the EC50 was more than 33.9 µM and the IC50 was more than 33.9 µM. Take `Oc1ccc2c(c1)OCC(O)(c1ccccc1O)C2` (stereo not drawn): the outcome was inactive. As to `COC(=O)/C(=N\NC(=S)NN)C(C(=O)OC)C(=O)C(=O)Nc1cccc(C(F)(F)F)c1` (stereo not drawn), the EC50 is more than 537 µM and the 50% inhibitory concentration (IC50) turned out to be 240 µM. The like results for `N=C(N)c1ccc(N=Nc2cc(N=Nc3ccc(C(=N)N)cc3)c(O)cc2O)cc1` were, in that order, 85.1 µM and more than 100 µM. The like results for `CC(=O)c1cccc(NC(=O)C(=O)C(C(=O)NN)c2ccccc2)c1` (stereo not drawn) were, in that order, more than 55 µM and more than 55 µM. The like results for `Cc1cc2c(cc1C)[n+](=O)c(C(=O)CC(=O)C(=O)Nc1ccccc1C)c(C)n2[O-]` were, in that order, more than 9.33 µM and more than 9.33 µM. Turning to `CC(=O)c1cc2c3c(c1)C(=O)CCN3CCC2=O`, the result was inactive. For `CCCCC1(CCO)C(=O)NC(=S)NC1=O`, the EC50 was more than 200 µM and the IC50 is more than 200 µM.

With `O=C1Cc2c(-c3ccccc3)cc(-c3ccc4ccccc4c3)nc2-c2ccccc2N1`, the EC50 is more than 200 µM and the IC50 is 51.3 µM.

Take `O=C(CCC(=O)C(C(=O)c1ccccc1)c1ccccc1)Nc1cccc(C(F)(F)F)c1` (stereo not drawn): the result was inactive.

Take `CCCCCCCCCC(O)CC(=O)c1c(O)cccc1O` (stereo not drawn): the EC50 is more than 200 µM and the half-maximal inhibitory concentration (IC50) stood at 32.4 µM. For the molecule `CN(CCO)CCCC1COc2ccccc2O1` (stereo not drawn), the EC50 is more than 200 µM and the half-maximal inhibitory concentration (IC50) is more than 200 µM.

On to `CC(=O)O/N=C(Cl)/C(Cl)=N/OC(C)=O`, for which the outcome was inactive. As for `C/C(=N\NC(=S)N(C)CCN(C)C(=S)N/N=C(\C)c1ccccn1)c1ccccn1`, the EC50 is more than 200 µM and the concentration for half-maximal inhibition (IC50) is 2.45 µM. On to `NNC(=S)NC1CC(c2ccccc2)Oc2ccccc21` (stereo not drawn), for which the outcome was inactive. The same measure, in the same setting: the result for `CCOc1ccc(N=Cc2ccc3cc(C)ccc3n2)cc1` reads “inactive”; that for `COc1cc(/C=C2/SC(=S)NC2=O)cc(OC)c1O`, “inactive”.

For `COc1ccc(/C=C(/C(=O)c2ccccc2)c2ccccc2)cc1`, the EC50 was more than 8.71 µM and the IC50 was more than 8.71 µM. With `O=[N+]([O-])c1ccc(N/N=C/C(c2ccccc2)c2ccsc2)c([N+](=O)[O-])c1` (stereo not drawn), the EC50 is more than 200 µM and the half-maximal inhibitory concentration (IC50) was 19.5 µM. Turning to `CSc1nc(NC(=O)O)c(N(C(C)=O)C(=O)O)c(=O)n1C`, the EC50 is more than 794 µM and the half-inhibitory concentration (IC50) is more than 794 µM. As for `CCOC(=O)NN(C(=O)OCC)C(C(=O)C1=CCCCC1)N(NC(=O)OCC)C(=O)OCC`, the EC50 was more than 200 µM and the concentration for half-maximal inhibition (IC50) was more than 200 µM.

`COc1ccc(/C=C2\C(=O)N(NC(C)=O)c3ccccc32)cc1`: the EC50 is more than 309 µM and the IC50 stood at 52.5 µM.

Take `O=C1c2c(Br)sc(Br)c2C(NC(=O)C(F)(F)F)C1O` (stereo not drawn): the EC50 is more than 200 µM and the half-maximal inhibitory concentration (IC50) turned out to be 35.5 µM. The like results for `Cc1ccc(N(C)S(=O)(=O)c2ccc([N+](=O)[O-])cc2)cc1` were, in that order, more than 200 µM and 178 µM. For `Cc1cc(S(=O)(=O)Nc2nc3ncccc3[nH]2)c(S)cc1Cl`, in that order: 33.1 µM and more than 200 µM. The like results for `O=[N+]([O-])C1CC/C(=N/O)c2nonc21` (stereo not drawn) were, in that order, more than 200 µM and 123 µM. On to `CCSc1n/c(=C\c2ccco2)c2nnnn12`, for which the EC50 is more than 50.1 µM and the concentration for half-maximal inhibition (IC50) is more than 50.1 µM.

On to `COc1cc([C@H]2Oc3c(OC)cc(/C=C/C(=O)O)cc3[C@@H]2C(=O)O)ccc1O`, for which the half-maximal effective concentration (EC50) is 120 µM and the concentration for half-maximal inhibition (IC50) is more than 200 µM. The like results for `CN(/N=C/c1ccccc1O)c1ccc2ccccc2n1` were, in that order, more than 200 µM and 126 µM. The like results for `NC(=O)CCNC(=O)c1ccccc1SC(=O)CCCC[n+]1ccccc1` were, in that order, 1.95 µM and 174 µM.

With `O=C(c1ccc([N+](=O)[O-])cc1[N+](=O)[O-])N(/N=C/C=C/c1ccccc1)c1nnc(-c2ccccc2)c(-c2ccccc2)n1`, the EC50 was more than 9.12 µM and the half-maximal inhibitory concentration (IC50) was more than 9.12 µM. Regarding `O=C(O)c1ccccc1-c1c2ccc(=O)c(Br)c-2oc2c(Br)c(O)ccc12`, the EC50 is more than 200 µM and the IC50 turned out to be 37.2 µM. The like results for `C=CCCON(C(=O)OC(C)(C)C)C(C)(C)C` were, in that order, more than 200 µM and more than 200 µM. The like results for `CC(C)(C)C(=O)C(C#N)C(=O)C(C)(C)C` were, in that order, more than 200 µM and more than 200 µM.

Consider `COc1ccc(/C=C(\C2=NC(=O)CS2)c2nc3ccccc3[nH]2)cc1`, for which the EC50 was more than 20.9 µM and the 50% inhibitory concentration (IC50) was more than 20.9 µM.

In the case of `CC(=O)O[C@H]1[C@@H](OC2CCCC2(c2ccccc2)c2ccccc2)O[N+]([O-])=C[C@@]12COCc1cc3c(cc12)OCO3` (stereo partly drawn), the EC50 is more than 200 µM and the IC50 is 11.7 µM.

Regarding `N#Cc1c(-c2ccccc2)nc(-c2ccccc2)sc1=S`, the EC50 was more than 100 µM and the IC50 was more than 100 µM.

For `C1=C[C@]2(CCC13OCCO3)COc1ccccc12`, the EC50 was more than 200 µM and the concentration for half-maximal inhibition (IC50) amounted to 18.6 µM. For `O=C1NC(=S)S/C1=C\c1ccc(Cl)cc1`, in that order: more than 74.1 µM and 66.1 µM.
